The values below come from article PMC7206119, “RIP1 inhibition blocks inflammatory diseases but not tumor growth or metastases” (Cell Death and Differentiation, 2019).

Common to all, as to assay: biochemical
Common to all, as to set-up: DiscoverX kinase panel, active-site competition binding (KINOMEscan type), percent of control at one concentration
Common to all, as to details: competition binding, percent of control

Experiment [1] addresses T1, DRAK1 (Homo sapiens, UniProt Q9UEE5).
T1 construct: gene STK17A

Experiment [2] deals with CDKL5 (Homo sapiens, UniProt O76039).
Chain of CDKL5 (O76039 whole entry): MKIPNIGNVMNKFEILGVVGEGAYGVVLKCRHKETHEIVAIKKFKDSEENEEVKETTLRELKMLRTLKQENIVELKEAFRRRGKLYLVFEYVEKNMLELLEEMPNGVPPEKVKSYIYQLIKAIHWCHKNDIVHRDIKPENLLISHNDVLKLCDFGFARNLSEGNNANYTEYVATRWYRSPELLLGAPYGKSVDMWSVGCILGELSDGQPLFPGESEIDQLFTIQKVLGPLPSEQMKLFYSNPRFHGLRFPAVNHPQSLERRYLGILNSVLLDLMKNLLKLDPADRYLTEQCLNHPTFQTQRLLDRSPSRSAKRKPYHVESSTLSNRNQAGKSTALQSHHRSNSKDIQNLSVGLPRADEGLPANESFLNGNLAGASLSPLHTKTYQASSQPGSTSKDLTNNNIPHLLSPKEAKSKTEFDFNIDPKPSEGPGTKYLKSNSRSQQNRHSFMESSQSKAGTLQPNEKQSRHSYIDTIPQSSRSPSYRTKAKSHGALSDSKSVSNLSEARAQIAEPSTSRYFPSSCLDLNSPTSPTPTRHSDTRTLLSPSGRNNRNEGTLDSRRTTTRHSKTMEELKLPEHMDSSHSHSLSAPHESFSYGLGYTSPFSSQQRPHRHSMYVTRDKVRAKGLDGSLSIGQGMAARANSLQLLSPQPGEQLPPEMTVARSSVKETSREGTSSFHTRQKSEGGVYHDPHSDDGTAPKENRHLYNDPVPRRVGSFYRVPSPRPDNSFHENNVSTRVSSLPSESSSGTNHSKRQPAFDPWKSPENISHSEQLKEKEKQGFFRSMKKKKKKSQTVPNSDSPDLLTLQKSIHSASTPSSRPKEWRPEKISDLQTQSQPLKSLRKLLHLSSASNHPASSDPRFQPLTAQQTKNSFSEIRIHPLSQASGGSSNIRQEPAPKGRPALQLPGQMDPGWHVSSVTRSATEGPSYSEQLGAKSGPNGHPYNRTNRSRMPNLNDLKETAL
Experiment [3] has as its target PRKG1 (Homo sapiens, UniProt Q13976).
Experiment [4] concerns the target PHKG1 (Homo sapiens, UniProt Q16816).
The target of experiment [5] is LCK (Homo sapiens, UniProt P06239).
Chain of LCK (P06239 whole entry): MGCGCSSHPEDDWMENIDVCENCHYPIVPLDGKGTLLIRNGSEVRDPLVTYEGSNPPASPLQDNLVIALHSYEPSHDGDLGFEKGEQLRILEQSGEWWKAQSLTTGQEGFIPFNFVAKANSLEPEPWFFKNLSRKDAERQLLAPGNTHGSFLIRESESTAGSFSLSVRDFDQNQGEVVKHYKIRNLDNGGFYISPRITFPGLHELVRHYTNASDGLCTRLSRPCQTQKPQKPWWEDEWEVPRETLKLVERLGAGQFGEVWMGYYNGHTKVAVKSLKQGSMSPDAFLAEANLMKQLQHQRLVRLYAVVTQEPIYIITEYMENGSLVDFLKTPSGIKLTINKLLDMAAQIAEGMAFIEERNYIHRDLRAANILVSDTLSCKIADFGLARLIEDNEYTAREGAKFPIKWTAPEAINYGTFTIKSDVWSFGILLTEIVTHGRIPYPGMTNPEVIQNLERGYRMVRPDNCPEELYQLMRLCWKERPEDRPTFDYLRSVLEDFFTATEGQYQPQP
Experiment [6] deals with MAP3K2 (Homo sapiens, UniProt Q9Y2U5).
Chain of MAP3K2 (Q9Y2U5 whole entry): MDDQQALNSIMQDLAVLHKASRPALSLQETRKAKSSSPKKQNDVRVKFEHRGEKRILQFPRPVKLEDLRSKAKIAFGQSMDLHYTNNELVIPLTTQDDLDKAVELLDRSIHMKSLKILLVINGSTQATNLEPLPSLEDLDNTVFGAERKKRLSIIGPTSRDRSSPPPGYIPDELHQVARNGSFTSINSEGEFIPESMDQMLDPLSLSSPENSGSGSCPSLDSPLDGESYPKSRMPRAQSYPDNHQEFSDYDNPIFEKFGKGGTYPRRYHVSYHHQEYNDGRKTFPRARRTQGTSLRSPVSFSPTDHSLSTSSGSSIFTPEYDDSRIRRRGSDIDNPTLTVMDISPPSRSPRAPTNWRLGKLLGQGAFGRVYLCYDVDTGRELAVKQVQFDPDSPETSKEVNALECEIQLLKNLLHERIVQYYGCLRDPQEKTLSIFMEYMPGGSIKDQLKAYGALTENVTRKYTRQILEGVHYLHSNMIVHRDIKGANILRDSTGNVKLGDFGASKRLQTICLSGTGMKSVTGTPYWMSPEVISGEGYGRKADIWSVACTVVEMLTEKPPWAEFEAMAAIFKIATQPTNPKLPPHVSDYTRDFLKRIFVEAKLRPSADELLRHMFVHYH
Experiment [7] concerns the target T2, MEK5 (Homo sapiens, UniProt Q13163).
T2 construct: gene MAP2K5

For experiment [8], the target named is FLT3-autoinhibited (Homo sapiens, UniProt P36888).
The target of experiment [9] is DYRK2 (Homo sapiens, UniProt Q92630).
In experiment [10] the target is TNIK (Homo sapiens, UniProt Q9UKE5).
Experiment [11] addresses PIK3CA(E542K) (Homo sapiens, UniProt P42336, E542K).
Experiment [12] deals with LATS2 (Homo sapiens, UniProt Q9NRM7).
For experiment [13], the target named is EGFR(L858R,T790M) (Homo sapiens, UniProt P00533, L858R/T790M).
Chain of EGFR(L858R,T790M) (P00533 whole entry T790M/L858R): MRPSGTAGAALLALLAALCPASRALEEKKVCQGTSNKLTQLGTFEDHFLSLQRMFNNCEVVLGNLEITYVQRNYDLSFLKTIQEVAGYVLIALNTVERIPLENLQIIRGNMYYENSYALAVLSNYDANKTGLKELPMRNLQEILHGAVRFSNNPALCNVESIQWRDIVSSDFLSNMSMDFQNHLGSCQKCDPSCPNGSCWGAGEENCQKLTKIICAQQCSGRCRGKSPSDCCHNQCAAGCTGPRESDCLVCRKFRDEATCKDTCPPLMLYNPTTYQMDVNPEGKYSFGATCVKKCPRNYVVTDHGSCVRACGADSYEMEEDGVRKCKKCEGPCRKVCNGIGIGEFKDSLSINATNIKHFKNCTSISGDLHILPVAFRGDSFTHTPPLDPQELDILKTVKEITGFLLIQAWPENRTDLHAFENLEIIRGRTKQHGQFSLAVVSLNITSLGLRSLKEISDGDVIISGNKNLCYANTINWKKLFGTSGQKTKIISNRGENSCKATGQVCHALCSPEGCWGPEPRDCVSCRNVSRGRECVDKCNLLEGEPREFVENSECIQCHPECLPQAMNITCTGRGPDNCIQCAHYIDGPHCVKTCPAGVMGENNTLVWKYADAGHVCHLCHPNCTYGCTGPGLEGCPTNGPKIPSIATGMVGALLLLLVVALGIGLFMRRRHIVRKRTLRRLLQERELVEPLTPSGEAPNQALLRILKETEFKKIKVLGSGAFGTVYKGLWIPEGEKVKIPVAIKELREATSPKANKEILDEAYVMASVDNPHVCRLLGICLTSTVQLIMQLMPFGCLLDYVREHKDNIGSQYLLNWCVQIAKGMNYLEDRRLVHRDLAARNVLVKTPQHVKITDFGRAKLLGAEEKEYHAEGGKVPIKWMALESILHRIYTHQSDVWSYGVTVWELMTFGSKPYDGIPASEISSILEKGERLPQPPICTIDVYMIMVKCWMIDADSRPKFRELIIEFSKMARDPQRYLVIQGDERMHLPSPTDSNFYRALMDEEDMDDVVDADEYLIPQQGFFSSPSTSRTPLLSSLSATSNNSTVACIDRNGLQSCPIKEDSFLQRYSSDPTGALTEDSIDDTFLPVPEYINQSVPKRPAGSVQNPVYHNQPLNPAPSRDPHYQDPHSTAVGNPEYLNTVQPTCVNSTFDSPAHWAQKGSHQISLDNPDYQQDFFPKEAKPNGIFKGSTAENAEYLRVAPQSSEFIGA
Experiment [14] has as its target T3, YANK2 (Homo sapiens, UniProt Q9NY57).
T3 construct: gene STK32B

For experiment [15], the target named is TAOK2 (Homo sapiens, UniProt Q9UL54).
The target of experiment [16] is EPHA5 (Homo sapiens, UniProt P54756).
Chain of EPHA5 (P54756 whole entry): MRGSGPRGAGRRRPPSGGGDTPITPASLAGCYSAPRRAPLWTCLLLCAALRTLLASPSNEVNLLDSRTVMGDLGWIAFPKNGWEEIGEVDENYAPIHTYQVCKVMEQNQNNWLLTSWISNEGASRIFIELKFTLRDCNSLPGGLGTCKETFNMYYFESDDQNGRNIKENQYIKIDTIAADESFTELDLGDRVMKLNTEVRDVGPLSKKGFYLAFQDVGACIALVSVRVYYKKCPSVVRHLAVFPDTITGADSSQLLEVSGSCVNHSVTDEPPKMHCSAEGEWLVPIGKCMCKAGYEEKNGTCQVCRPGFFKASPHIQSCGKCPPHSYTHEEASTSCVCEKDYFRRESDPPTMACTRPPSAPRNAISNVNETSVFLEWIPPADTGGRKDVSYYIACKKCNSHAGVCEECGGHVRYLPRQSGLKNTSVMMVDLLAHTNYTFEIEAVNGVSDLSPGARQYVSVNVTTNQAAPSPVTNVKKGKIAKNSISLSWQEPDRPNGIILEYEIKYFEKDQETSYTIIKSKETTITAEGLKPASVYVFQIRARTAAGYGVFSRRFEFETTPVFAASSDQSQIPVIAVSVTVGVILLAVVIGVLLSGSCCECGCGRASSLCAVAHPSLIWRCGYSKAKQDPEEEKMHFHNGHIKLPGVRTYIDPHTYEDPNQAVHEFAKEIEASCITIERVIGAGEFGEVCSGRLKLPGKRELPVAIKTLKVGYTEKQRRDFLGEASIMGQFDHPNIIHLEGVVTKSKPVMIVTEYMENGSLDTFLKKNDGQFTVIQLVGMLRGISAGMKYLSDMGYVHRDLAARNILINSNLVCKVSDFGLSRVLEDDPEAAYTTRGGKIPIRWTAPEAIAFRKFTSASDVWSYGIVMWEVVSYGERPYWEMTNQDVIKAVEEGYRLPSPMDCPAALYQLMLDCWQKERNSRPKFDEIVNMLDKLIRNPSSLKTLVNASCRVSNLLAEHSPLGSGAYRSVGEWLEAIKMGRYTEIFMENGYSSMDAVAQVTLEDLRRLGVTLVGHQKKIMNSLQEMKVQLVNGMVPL
Experiment [17] addresses T4, ERK1 (Homo sapiens, UniProt P27361).
T4 construct: gene MAPK3

Experiment [18] addresses CSK (Homo sapiens, UniProt P41240).
Experiment [19] deals with CSNK1G3 (Homo sapiens, UniProt Q9Y6M4).
For experiment [20], the target named is EPHA2 (Homo sapiens, UniProt P29317).
For experiment [21], the target named is CIT (Homo sapiens, UniProt O14578).

Chain of PRKG1 (Q13976 whole entry): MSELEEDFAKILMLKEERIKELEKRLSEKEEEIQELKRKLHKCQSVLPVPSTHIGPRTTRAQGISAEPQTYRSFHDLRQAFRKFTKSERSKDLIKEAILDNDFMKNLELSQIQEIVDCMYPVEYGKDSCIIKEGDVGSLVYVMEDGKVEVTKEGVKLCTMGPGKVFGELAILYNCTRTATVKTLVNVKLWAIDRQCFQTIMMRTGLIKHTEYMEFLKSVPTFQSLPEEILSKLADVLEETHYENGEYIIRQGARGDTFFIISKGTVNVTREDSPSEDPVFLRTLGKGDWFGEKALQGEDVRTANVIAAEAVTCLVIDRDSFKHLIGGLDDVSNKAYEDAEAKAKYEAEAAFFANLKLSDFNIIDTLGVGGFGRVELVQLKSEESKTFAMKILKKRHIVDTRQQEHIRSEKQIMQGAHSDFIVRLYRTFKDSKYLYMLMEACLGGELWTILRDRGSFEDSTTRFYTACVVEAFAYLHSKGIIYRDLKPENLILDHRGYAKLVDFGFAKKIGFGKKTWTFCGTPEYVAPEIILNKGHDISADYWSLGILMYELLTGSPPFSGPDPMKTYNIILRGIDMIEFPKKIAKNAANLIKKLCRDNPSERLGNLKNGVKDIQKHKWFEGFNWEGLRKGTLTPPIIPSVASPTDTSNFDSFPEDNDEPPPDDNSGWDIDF

As for `COc1cc2c(cn1)N(C)C(=O)[C@@H](NC(=O)c1nc3n(n1)[C@H](c1ccccc1)CC3)CC2` [GNE684, (S)-N-((S)-7-methoxy-1-methyl-2-oxo-2,3,4,5-tetrahydro-1H-pyrido[3,4-b]azepin-3-yl)-5-phenyl-6,7-dihydro-5H-pyrrolo[1,2-b][1,2,4]triazole-2-carboxamide], the remaining binding at 10 µM is 92% in experiment [1]; 79% in experiment [2]; 81% in experiment [3]; 77% in [4]; 86% in experiment [5]; 76% in experiment [6]. Also, the remaining binding at 10 µM in experiment [7] is 80%; in [8], 100%; in experiment [9], 87%; in experiment [10], 67%; in experiment [11] it was 41%; in experiment [12], 84%. In addition, the remaining binding at 10 µM in [13] was 100%; in experiment [14], 84%; in experiment [15] it was 92%; in [16] it was 100%; in experiment [17], 96%; in experiment [18] it was 100%. Also, the remaining binding at 10 µM was determined as 95% in [19], 97% in experiment [20] and 100% in [21].
